Results as given in patent US20060074243A1, “Hydroxamic acid and amide compounds and their use as protease inhibitors” (Pharmacia Corporation, priority 2002, published 2006).

Biological target: T1, Human recombinant MMP-13 (Homo sapiens, UniProt P45452)
T1 construct: made in house; host or cells: baculovirus / insect cells
Assay: In vitro MMP inhibition analysis (fluorogenic peptide substrate cleavage), Ki
Type: biochemical
Details: Table 2
Method in brief: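 Baculovirus-expressed full-length MMP-13 proenzyme was purified on heparin-agarose and zinc-chelate columns, then APMA-activated. It cleaved 4 μM MCA/Dpa fluorogenic peptide in 100 mM Tris-HCl, 100 mM NaCl, 10 mM CaCl2, 0.05% Brij-23, pH 7.5, for 1 h at room temperature (ex 330/em 420 nm). Ki came from Morrison-equation fits with substrate ≤Km, uncorrected.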

SMILES	Ki
Cc1ccc(-c2ccc(S(=O)(=O)C3(C(=O)NO)CCOCC3)cc2)nc1 [Example 81]	0.118 nM
O=C(NO)C1(S(=O)(=O)c2ccc(-c3ccc(OCC(F)(F)C(F)F)c(C(F)(F)F)c3)cc2)CCOCC1 [Example 85]	14.7 nM
CCCCOc1ccc(-c2ccc(S(=O)(=O)C3(C(=O)NO)CCOCC3)cc2)cc1C(F)(F)F [Example 78]	16.6 nM
CC(C)N(C(=O)N1CCC(C(=O)NO)(S(=O)(=O)c2ccc(-c3ccc(CCC(F)(F)C(F)(F)F)cc3)cc2)CC1)C(C)C [Example 174]	1.92 nM
CCCc1ccc(-c2ccc(S(=O)(=O)C3(C(=O)NO)CCOCC3)cc2)cc1 [Example 87]	0.138 nM
O=C(NO)C1(S(=O)(=O)c2ccc(-c3ccc(OC(F)(F)F)cc3)cc2)CCOCC1 [Example 80]	0.068 nM
CC(C)c1ccc(-c2ccc(S(=O)(=O)C3(C(=O)NO)CCOCC3)cc2)cc1 [Example 97]	0.521 nM
O=C(NO)C1(S(=O)(=O)c2ccc(-c3cnc(OCC4CC4)cn3)cc2)CCOCC1 [Example 168]	0.06 nM
COCCOc1ccc(-c2ccc(S(=O)(=O)C3(C(=O)NO)CCOCC3)cc2)cc1 [Example 70]	0.03 nM
O=C(NO)C1(S(=O)(=O)c2ccc(-c3ccc(C(F)(F)F)cc3F)cc2)CCOCC1 [Example 96]	0.416 nM
O=C(NO)C1(S(=O)(=O)c2ccc(-c3cnc(OCCCC(F)(F)F)cn3)cc2)CCOCC1 [Example 88]	0.0368 nM
COC/C(Cl)=C/c1cnc(-c2ccc(S(=O)(=O)C3(C(=O)NO)CCOCC3)cc2)cn1 [Example 165]	0.84 nM

The remaining lines, values ahead:

Ki	SMILES
0.09 nM	COC(=O)c1ccc2cc(-c3ccc(S(=O)(=O)C4(C(=O)NO)CCOCC4)cc3)ccc2c1 [Example 181]
0.736 nM	CN(C)C(=O)c1ccc2cc(-c3ccc(S(=O)(=O)C4(C(=O)NO)CCOCC4)cc3)ccc2c1 [Example 221]
13.5 nM	O=C1c2ccccc2C(=O)N1CCCOc1cccc(-c2ccc(S(=O)(=O)C3(C(=O)NO)CCOCC3)cc2)c1 [Example 196]
0.19 nM	CC(C)CCNC(=O)c1cnc(-c2ccc(S(=O)(=O)C3(C(=O)NO)CCOCC3)cc2)cn1 [Example 185]
0.02 nM	O=C(NO)C1(S(=O)(=O)c2ccc(-c3ccc(CCC(F)(F)F)cn3)cc2)CCOCC1 [Example 176]
1.2 nM	CCN1CCC(C(=O)NO)(S(=O)(=O)c2ccc(-c3cnc(CCCC(F)(F)F)cn3)cc2)CC1 [Example 217]
0.82 nM	COCCC(C(=O)NO)S(=O)(=O)c1ccc(-c2ccc(CCC(F)(F)C(F)(F)F)cc2)cc1 (stereo not shown) [Example 177]
0.55 nM	CC(C)CNC(=O)c1cnc(-c2ccc(S(=O)(=O)C3(C(=O)NO)CCOCC3)cc2)cn1 [Example 186]
0.973 nM	COc1ccc(C(=O)c2cnc(-c3ccc(S(=O)(=O)C4(C(=O)NO)CCOCC4)cc3)cn2)cc1 [Example 179]
0.28 nM	O=C(NCC1CCCCC1)c1cnc(-c2ccc(S(=O)(=O)C3(C(=O)NO)CCOCC3)cc2)cn1 [Example 190]
7.07 nM	COc1ccc(Cc2cnc(-c3ccc(S(=O)(=O)C4(C(=O)NO)CCOCC4)cc3)cn2)cc1 [Example 182]
0.751 nM	CC(C)NC(=O)c1ccc(-c2ccc(S(=O)(=O)C3(C(=O)NO)CCOCC3)cc2)nc1 [Example 204]
319 nM	O=C(NO)C1(S(=O)(=O)c2ccc(-c3cnc4ccccc4n3)cc2)CCOCC1 [Example 194]
